Series [1] has as its system Plasmodium falciparum. Put plainly: Antiparasitic activity against Plasmodium falciparum 3D7. Type of series: functional, organism-based.
For series [2], the system named is Plasmodium falciparum. Kind of series: Antiparasitic activity against Plasmodium falciparum infected in human PBMC. Type of series: functional, organism-based.
For series [3], the system named is Plasmodium falciparum. Kind of series: Antiparasitic activity against Plasmodium falciparum D6. Type of series: functional, organism-based.
The test system of series [4] is Plasmodium falciparum. Put plainly: Antiparasitic activity against Plasmodium falciparum infected in SCID mouse. The series is classed as functional.
Series [5] relates to Plasmodium falciparum. Put plainly: Antiparasitic activity against Plasmodium falciparum. Type of series: functional, organism-based.
In series [6] the test system is Plasmodium falciparum. Kind of series: Antiparasitic activity against Plasmodium falciparum infected in mouse. The series is classed as functional.
Series [7] deals with Plasmodium falciparum. Put plainly: Antiparasitic activity against Plasmodium falciparum W2. The series is classed as functional, organism-based.
For series [8], the system named is Plasmodium falciparum. Kind of series: Antiparasitic activity against Plasmodium falciparum infected in human HepG2 cells. Type of series: functional, organism-based.
In series [9] the test system is Plasmodium falciparum. Kind of series: Antiparasitic activity against Plasmodium falciparum […]. The series is classed as functional, organism-based.
Series [10] deals with Plasmodium falciparum. Kind of series: Antiparasitic activity against Plasmodium falciparum TM91C235. The series is classed as functional, organism-based.
Series [11] is described as follows: Selectivity index, ratio of IC50 for African green Monkey BGM cells to IC50 for chloroquine-resistant Plasmodium falciparum W2. The series is classed as toxicity. The conditions noted are these: read-out: Selectivity Index.
The test system of series [12] is Plasmodium falciparum. Put plainly: Antiparasitic activity against chloroquine-resistant Plasmodium falciparum Dd2. The series is classed as functional, organism-based.
In series [13] the test system is Plasmodium falciparum. Kind of series: Antiparasitic activity against Plasmodium falciparum D10. The series is classed as functional, organism-based.
In series [14] the test system is Plasmodium falciparum. Kind of series: Antiparasitic activity against Plasmodium falciparum Dd2. Type of series: functional, organism-based.
Series [15] has as its system Plasmodium falciparum. Put plainly: Antiparasitic activity against Plasmodium falciparum K1. The series is classed as functional, organism-based.
For series [16], the system named is Plasmodium falciparum. Put plainly: Antiparasitic activity against Plasmodium falciparum C2B. Type of series: functional, organism-based.
Series [17] relates to Plasmodium falciparum. Put plainly: Antiparasitic activity against Plasmodium falciparum Tm90. Type of series: functional, organism-based.
Series [18] deals with Plasmodium berghei. Kind of series: Antiparasitic activity against Plasmodium berghei ANKA infected in mouse assessed as mouse survival. The series is classed as functional.
The test system of series [19] is Plasmodium berghei. Kind of series: Antiparasitic activity against Plasmodium berghei ANKA infected in CD1 mouse assessed as reduction in parasitemia. Type of series: functional.

Consider `COc1cc2[nH]c(C)c(-c3ccc(Oc4ccc(OC(F)(F)F)cc4)cc3)c(=O)c2cc1Cl`, for which the EC50 – broadly, the midpoint of the concentration-response curve – with Plasmodium falciparum [1] (Plasmodium falciparum, 3D7) was 1.3 to 13.6 nM; with Plasmodium falciparum [2], 1.3 to 13.6 nM; in the series with Plasmodium falciparum [3], 1.3 to 13.6 nM; in the series with Plasmodium falciparum [5], 0.58 nM. The ED50 (commonly the dose that gives a 50% effect, or the effect in half of the subjects) is 6 mg/kg in the series with Plasmodium falciparum [4] and 0.016 mg/kg with Plasmodium falciparum [6].
With `CC(=O)O[C@@H]1CC[C@@]2(C)[C@@H](C1)C[C@@H](OC(C)=O)[C@@H]1[C@@H]2C[C@H](OC(C)=O)[C@]2(C)[C@@H]([C@H](C)CCCNCCCNc3ccnc4cc(Cl)ccc34)CC[C@@H]12`, in the series on Plasmodium falciparum [7] (Plasmodium falciparum, W2), the IC50 (as a rule, the midpoint of a concentration-inhibition curve) is 2.63 to 13.8 nM.
As for `CC(=O)O[C@H]1C[C@H]2[C@@H]([C@H](OC(C)=O)C[C@@H]3C[C@H](O)CC[C@@]32C)[C@@H]2CC[C@H]([C@H](C)CCCNCCNc3ccnc4cc(Cl)ccc34)[C@@]12C`, the concentration for half-maximal inhibition (IC50) with Plasmodium falciparum [7] (Plasmodium falciparum, W2) lay within 2.63 to 13.8 nM; in the series with Plasmodium falciparum [3], 1.35 to 14.1 nM.
For the compound `CC(=O)O[C@H]1C[C@H]2[C@@H]([C@H](OC(C)=O)C[C@@H]3CC(=O)CC[C@@]32C)[C@@H]2CC[C@H]([C@H](C)CCCNCCNc3ccnc4cc(Cl)ccc34)[C@@]12C`, the IC50 lay in the range of 2.63 to 13.8 nM in the series with Plasmodium falciparum [7] (Plasmodium falciparum, W2) and 1.35 to 14.1 nM with Plasmodium falciparum [3].
The matching figures for `CC(=O)O[C@H]1C[C@H]2[C@@H]([C@H](OC(C)=O)C[C@@H]3CC(=O)CC[C@@]32C)[C@@H]2CC[C@H]([C@H](C)CCCNCCCNc3ccnc4cc(Cl)ccc34)[C@@]12C`: 2.63 to 13.8 nM and 1.35 to 14.1 nM.
Consider `CC(=O)O[C@@H]1CC[C@@]2(C)[C@@H](C1)C[C@@H](OC(C)=O)[C@@H]1[C@@H]2C[C@H](OC(C)=O)[C@]2(C)[C@@H]([C@H](C)CCCN(C)CCCNc3ccnc4cc(Cl)ccc34)CC[C@@H]12`, for which the IC50 in the series on Plasmodium falciparum [7] (Plasmodium falciparum, W2) was 2.63 to 13.8 nM.
As to `CC(=O)O[C@H]1C[C@H]2[C@@H]([C@H](OC(C)=O)C[C@@H]3C[C@H](NC(=O)OC(C)(C)C)CC[C@@]32C)[C@@H]2CC[C@H]([C@H](C)CCCNCCNc3ccnc4cc(Cl)ccc34)[C@@]12C`, the IC50 in the series with Plasmodium falciparum [3] was 1.35 to 14.1 nM.
Take `CC(=O)O[C@H]1C[C@H]2[C@@H]([C@H](OC(C)=O)C[C@@H]3C[C@H](NS(C)(=O)=O)CC[C@@]32C)[C@@H]2CC[C@H]([C@H](C)CCCN(C)CCNc3ccnc4cc(Cl)ccc34)[C@@]12C`: the half-inhibitory concentration (IC50) in the series on Plasmodium falciparum [7] (Plasmodium falciparum, W2) fell in the range of 2.63 to 13.8 nM; in the series on Plasmodium falciparum [3], 1.35 to 14.1 nM.
In the series on Plasmodium falciparum [7] (Plasmodium falciparum, W2), `CC(=O)O[C@H]1C[C@H]2[C@@H]([C@H](OC(C)=O)C[C@@H]3C[C@H](NC(=O)OC(C)(C)C)CC[C@@]32C)[C@@H]2CC[C@H]([C@H](C)CCCN(C)CCNc3ccnc4cc(Cl)ccc34)[C@@]12C` had an IC50 of 2.63 to 13.8 nM.
In the case of `CC(=O)O[C@H]1C[C@H]2[C@@H]([C@H](OC(C)=O)C[C@@H]3C[C@H](N)CC[C@@]32C)[C@@H]2CC[C@H]([C@H](C)CCCN(C)CCNc3ccnc4cc(Cl)ccc34)[C@@]12C`, the IC50 in the series with Plasmodium falciparum [8] was above 1000 nM; in the series on Plasmodium falciparum [7] (Plasmodium falciparum, W2) it was 3.74 nM; in the series on Plasmodium falciparum [9], 1140 nM; with Plasmodium falciparum [2], above 1000 nM; in the series on Plasmodium falciparum [10] it was 9.2 nM; in the series on Plasmodium falciparum [3], 4.46 nM.
For the compound `CC(=O)O[C@H]1C[C@H]2[C@@H]([C@H](OC(C)=O)C[C@@H]3C[C@H](N(C)C)CC[C@@]32C)[C@@H]2CC[C@H]([C@H](C)CCCN(C)CCNc3ccnc4cc(Cl)ccc34)[C@@]12C`, the IC50 in the series on Plasmodium falciparum [9] came out at 2270 nM; in the series on Plasmodium falciparum [10], 3.32 nM; in the series with Plasmodium falciparum [3] it was 2.63 nM.
For the compound `COc1cc2[nH]c(C)c(-c3ccc(Oc4ccc(OC(F)(F)F)cc4)cc3F)c(=O)c2cc1Cl`, the EC50 with Plasmodium falciparum [1] (Plasmodium falciparum, 3D7) was 3.18 to 32.3 nM; in the series on Plasmodium falciparum [2], 3.18 to 32.3 nM; with Plasmodium falciparum [3], 3.18 to 32.3 nM; in the series with Plasmodium falciparum [5] it was 1.06 nM. Besides, it took a dose of 0.3 mg/kg to reach the 50% effect level with Plasmodium falciparum [6] (ED50).
With `O=Cc1cn(-c2ccnc3cc(Cl)ccc23)nn1`, the selectivity ratio in series [11] is 351.
Take `NS(=O)(=O)c1cccc(-n2cc(CCNc3ccnc4cc(Cl)ccc34)nn2)c1`: the IC50 with Plasmodium falciparum [1] (Plasmodium falciparum, 3D7) amounted to 600 nM; in the series with Plasmodium falciparum [12] it was 600 nM.
Consider `CC(C)=CC(=O)O[C@@H]1C[C@@]2(C)[C@@H](C=C1C)O[C@@H]1[C@H](O)[C@@H](O)[C@@]2(C)[C@]12CO2`, for which the IC50 with Plasmodium falciparum [1] was 29 nM; in the series with Plasmodium falciparum [7] it was 370 nM.
Consider `CC(CCNc1ccnc2cc(Cl)ccc12)NCCO[C@H]1O[C@@H]2O[C@@]3(C)CC[C@H]4[C@H](C)CC[C@@H]([C@H]1C)[C@@]24OO3` (stereo partly drawn), for which the IC50 with Plasmodium falciparum [13] was found to be 17.1 nM; in the series with Plasmodium falciparum [14], 12.2 nM.
For `NS(=O)(=O)c1ccc(-n2cc(CCCNc3ccnc4cc(Cl)ccc34)nn2)cc1`, the IC50 was 600 nM with Plasmodium falciparum [1] (Plasmodium falciparum, 3D7) and 600 nM in the series on Plasmodium falciparum [12].
For `NS(=O)(=O)c1ccc(-n2cc(CNc3ccnc4cc(Cl)ccc34)nn2)cc1`, the IC50 worked out at 600 nM in the series with Plasmodium falciparum [1] (Plasmodium falciparum, 3D7) and 600 nM in the series on Plasmodium falciparum [12].
In the case of `O=C(N/N=C/c1ccc(Br)cc1)C(=O)Nc1ccc(Nc2ccnc3cc(Cl)ccc23)cc1`, the IC50 was found to be 52 nM with Plasmodium falciparum [15] and 19.7 nM in the series with Plasmodium falciparum [1] (Plasmodium falciparum, 3D7).
`CCCCCCCc1c(C)nc2cc(F)cc(F)c2c1OC(=O)OCCOCCOCCOCCOC`: the IC50 was determined as 146 nM in the series with Plasmodium falciparum [16], 0.05 nM in the series on Plasmodium falciparum [3], 0.4 nM in the series on Plasmodium falciparum [14] and 81 nM with Plasmodium falciparum [17].
With `CC(C)(C)c1ccc(/C=N/NC(=O)C(=O)Nc2ccc(Nc3ccnc4cc(Cl)ccc34)cc2)cc1`, the IC50 with Plasmodium falciparum [15] was determined as 52 nM; in the series on Plasmodium falciparum [1] (Plasmodium falciparum, 3D7), 19.7 nM.
In the case of `OC(CN1CCC2(CC1)CC(O)c1ccc3ccccc3c1O2)c1ccc(F)c(F)c1` (stereo not drawn), the Survival in the series with Plasmodium berghei [18] was above 1.7 days. In the series on Plasmodium falciparum [12], this compound registered an EC50 of 350 nM.
Consider `CC(C)(C)NCc1cc(Nc2ccnc3cc(Cl)ccc23)ccc1F`, for which the ED50 in the series with Plasmodium berghei [19] was found to be 5.3 mg/kg.
For `NS(=O)(=O)c1ccc(-n2cc(CCNc3ccnc4cc(Cl)ccc34)nn2)cc1`, the IC50 in the series with Plasmodium falciparum [1] (Plasmodium falciparum, 3D7) is 600 nM; with Plasmodium falciparum [12] it was 600 nM.
As for `NS(=O)(=O)c1cccc(-n2cc(CNc3ccnc4cc(Cl)ccc34)nn2)c1`, the IC50 with Plasmodium falciparum [1] (Plasmodium falciparum, 3D7) was found to be 600 nM; with Plasmodium falciparum [12] it was 600 nM.
As to `COc1cc(NC(C)CCCNCc2ccc(CO[C@H]3O[C@@H]4O[C@@]5(C)CC[C@H]6[C@H](C)CC[C@@H]([C@H]3C)[C@@]46OO5)cc2)c2ncccc2c1` (stereo partly drawn), the midpoint of inhibition in the series on Plasmodium falciparum [7] (Plasmodium falciparum, W2), the IC50, lay at 112 nM.
Turning to `Cc1[nH]c2cc(F)cc(F)c2c(=O)c1CCCCCCCl`, the IC50 was determined as 146 nM in the series with Plasmodium falciparum [16], 0.05 nM in the series on Plasmodium falciparum [3], 0.4 nM with Plasmodium falciparum [14] and 81 nM with Plasmodium falciparum [17].
Turning to `NS(=O)(=O)c1cccc(-n2cc(CCCNc3ccnc4cc(Cl)ccc34)nn2)c1`, the IC50 with Plasmodium falciparum [1] (Plasmodium falciparum, 3D7) came out at 600 nM; in the series on Plasmodium falciparum [12], 600 nM.
Regarding `O[C@@H](c1cc(C(F)(F)F)nc2c(C(F)(F)F)cccc12)[C@H]1CCCCN1` [(S,R)-MEFLOQUINE], the IC50 with Plasmodium falciparum [3] is 15.2 nM.
In the series with Plasmodium falciparum [6], `C[C@H]1Cc2c([nH]c3cc(Cl)c(F)cc23)[C@@]2(N1)C(=O)Nc1ccc(Cl)cc12` [CIPARGAMIN] showed an ED50 of 1 mg/kg, an ED90 of 3 mg/kg and an ED99 of 5 mg/kg.
Consider `CC(C)c1cc2c(cc1O)[C@@]1(C)CCCC(C)(C)[C@@H]1CC2` [FERRUGINOL], for which the IC50 with Plasmodium falciparum [15] is 0.9 to 4.2 µg/mL; in the series with Plasmodium falciparum [7] (Plasmodium falciparum, W2) it was 0.9 to 4.2 µg/mL; with Plasmodium falciparum [13], 0.9 to 4.2 µg/mL; in the series on Plasmodium falciparum [3], 0.9 to 4.2 µg/mL.
